Several values for one entry are separate records, joined by “and”; a condition that tells them apart may be missing. Identical values can stand only once.
Key:
[1] = tested on: PC-3 tumors; experiment: In vivo combination therapy with everolimus in PC-3 tumor bearing mice; design: species or system mouse; settings: for Tumor volume, average: 5mg/kg (x3)
Description: Treatment began once tumors reached the same size threshold used in the monotherapy studies. Animals were divided into three groups (n = 4–5 per group) and received one of the following regimens: • 1.
Monitoring procedures matched those used in the monotherapy experiments.
The procedure is detailed in the supplementary material.
initiation of therapy in the combination treatment studies. Three groups of 5 mice per group were
Both monotherapy and combination

[2] = Morphological assessment / tolerability (H&E of kidney, pancreas, tumor)

CO[C@H]1C[C@@H]2CC[C@@H](C)[C@@](O)(O2)C(=O)C(=O)N2CCCC[C@H]2C(=O)O[C@H]([C@H](C)C[C@@H]2CC[C@@H](OCCO)[C@H](OC)C2)CC(=O)[C@H](C)/C=C(\C)[C@@H](O)[C@@H](OC)C(=O)[C@H](C)C[C@H](C)/C=C/C=C/C=C/1C [Everolimus, everolimus]
Median survival ([1]; 5 mg/kg/day for 3 days i.p.): 27.5 days and ~27 days | Tumor volume, average ([1]; day 0): 100.06 mm3 | Tumor volume, average ([1]; day 2): 108.59 mm3 | Tumor volume, average ([1]; day 4): 107.95 mm3 | Tumor volume, average ([1]; day 6): 97.61 mm3 | Tumor volume, average ([1]; day 8): 97.18 mm3 | Tumor volume, average ([1]; day 10): 104.48 mm3 | Tumor volume, average ([1]; day 12): 131.10 mm3 | Tumor volume, average ([1]; day 14): 181.07 mm3 | Tumor volume, average ([1]; day 16): 193.30 mm3 | Tumor volume, average ([1]; day 18): 241.75 mm3 | Tumor volume, average ([1]; day 20): 376.61 mm3 | Tumor volume, average ([1]; day 22): 630.33 mm3 | Tumor volume, average ([1]; day 24): 524.51 mm3 | Tumor volume, average ([1]; day 27): 794.32 mm3 | Tumor volume, average ([1]; day 29): 970.40 mm3 | effect on tumor growth ([1]; everolimus alone, 5 mg/kg/day for 3 days): moderately delayed tumor growth but did not stop it | Pancreas, microscopic tissue examination ([2]; 5mg/kg (x3)): No obvious lesions | tolerability ([2]; three doses, physical condition and weight): no observable side effects

Reference: article PMC12797171, “Preclinical Evaluation of a ^177Lu-Labeled Gastrin-Releasing Peptide Receptor Antagonist and Prostate Cancer Treatment with Monotherapy and in Combination with Everolimus” (ACS Pharmacology & Translational Science, 2025)
